Laboratory results published in ChEMBL document CHEMBL4823252 (J Med Chem, 2021).
Activity calls are given as the source filed them. The calls are words filed in the database; no cut-off is given here.

Tests used:
MOLM-13 [1] = test: Induction of cell cycle arrest in human MOLM-13 cells assessed as accumulation at G2/M phase at 100 nM incubated for 24 hrs by flow cytometry (reference value: […]); type: functional
MV4-11 [2] = test: Induction of apoptosis in human MV4-11 cells assessed as viable cells at 100 nM incubated for 24 hrs by flow cytometry (reference value: 98.86%); type: functional; details: read-out: Activity
[3] = Toxicity in mouse xenografted with human MOLM-13 cells assessed as effect on spleen at 10 to 40 mg/kg, po administered for 20 days by hematoxylin and eosin staining assay; type: organism-based; details: in vivo, 480 h, dose 10-40 mg/kg, time 20 day
MOLM-13 [4] = test: Induction of cell cycle arrest in human MOLM-13 cells assessed as accumulation at G1 phase at 10 nM incubated for 24 hrs by flow cytometry (reference value: 69.08%); type: functional
Mus musculus = test: Induction of tumor recurrence mouse xenografted with human MOLM-13 cells at 10 to 40 mg/kg, po; type: functional, organism-based; details: dose 10-40 mg/kg
[5] = tested on: Receptor-type tyrosine-protein kinase FLT3 (Homo sapiens), P36888 [D835H]; test: Binding affinity to FLT3 D835H mutant (unknown origin) at 1000 nM relative to control
MOLM-13 [6] = test: Induction of cell cycle arrest in human MOLM-13 cells assessed as accumulation at S phase at 100 nM incubated for 24 hrs by flow cytometry (reference value: 16.28%); type: functional
MOLM-13 [7] = test: Induction of apoptosis in human MOLM-13 cells assessed as necrotic apoptotic cells at 1 nM incubated for 24 hrs by flow cytometry (reference value: 0.45%); type: functional
MOLM-13 [8] = test: Induction of cell cycle arrest in human MOLM-13 cells assessed as accumulation at sub-G1 phase at 100 nM incubated for 24 hrs by flow cytometry (reference value: 4.24%); type: functional
MOLM-13 [9] = test: Antiproliferative activity against human quizartinib-resistant MOLM-13 cells at 1 nM incubated for 72 hrs by CCK8 assay relative to control; type: functional
[10] = target: Platelet-derived growth factor receptor beta (Homo sapiens, UniProt P09619); test: Inhibition of PDGFRbeta (unknown origin) incubated for 30 mins in presence of ATP by mobility shift assay
Platelet-derived growth factor receptor beta, sequence (P09619 whole entry): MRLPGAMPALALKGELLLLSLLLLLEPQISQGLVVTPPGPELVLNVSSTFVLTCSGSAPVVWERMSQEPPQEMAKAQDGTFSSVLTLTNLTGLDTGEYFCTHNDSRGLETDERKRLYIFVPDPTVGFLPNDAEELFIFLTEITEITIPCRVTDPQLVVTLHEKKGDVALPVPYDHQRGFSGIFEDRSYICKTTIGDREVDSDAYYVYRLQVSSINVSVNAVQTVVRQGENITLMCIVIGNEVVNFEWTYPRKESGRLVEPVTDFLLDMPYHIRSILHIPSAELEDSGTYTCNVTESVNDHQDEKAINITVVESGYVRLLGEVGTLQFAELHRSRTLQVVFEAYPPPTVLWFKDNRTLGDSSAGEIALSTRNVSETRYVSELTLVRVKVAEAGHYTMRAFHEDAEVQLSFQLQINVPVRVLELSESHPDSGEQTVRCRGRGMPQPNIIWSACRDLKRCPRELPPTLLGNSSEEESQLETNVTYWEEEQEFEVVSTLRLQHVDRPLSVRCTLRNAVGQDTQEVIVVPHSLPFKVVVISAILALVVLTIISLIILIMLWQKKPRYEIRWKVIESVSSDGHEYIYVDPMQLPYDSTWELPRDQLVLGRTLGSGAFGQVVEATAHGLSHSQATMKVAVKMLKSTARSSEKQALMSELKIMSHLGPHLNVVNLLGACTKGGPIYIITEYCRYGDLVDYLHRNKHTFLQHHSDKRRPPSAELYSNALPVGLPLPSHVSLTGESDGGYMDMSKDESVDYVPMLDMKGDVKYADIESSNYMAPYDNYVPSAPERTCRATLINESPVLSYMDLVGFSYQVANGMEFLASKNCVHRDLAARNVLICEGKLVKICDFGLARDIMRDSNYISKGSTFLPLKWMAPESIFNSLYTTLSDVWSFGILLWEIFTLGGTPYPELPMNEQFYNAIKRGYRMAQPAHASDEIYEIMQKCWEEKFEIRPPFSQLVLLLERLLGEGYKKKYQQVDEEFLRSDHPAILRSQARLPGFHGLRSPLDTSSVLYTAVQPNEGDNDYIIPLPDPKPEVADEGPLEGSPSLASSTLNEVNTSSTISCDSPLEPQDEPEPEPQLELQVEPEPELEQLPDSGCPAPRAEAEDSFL

MV4-11 [11] = test: Induction of apoptosis in human MV4-11 cells incubated for 24 hrs by flow cytometry; type: functional, cell-based
MOLM-13 [12] = test: Induction of apoptosis in human MOLM-13 cells assessed as early apoptotic cells at 1 nM incubated for 24 hrs by flow cytometry (reference value: 2.18%); type: functional
MV4-11 [13] = test: Induction of cell cycle arrest in human MV4-11 cells assessed as accumulation at G1 phase at 1 nM incubated for 24 hrs by flow cytometry (reference value: 64.73%); type: functional
[14] = target: Mast/stem cell growth factor receptor Kit (Homo sapiens, UniProt P10721); test: Inhibition of c-KIT (unknown origin) incubated for 30 mins in presence of ATP by mobility shift assay
Mast/stem cell growth factor receptor Kit, sequence (P10721 whole entry): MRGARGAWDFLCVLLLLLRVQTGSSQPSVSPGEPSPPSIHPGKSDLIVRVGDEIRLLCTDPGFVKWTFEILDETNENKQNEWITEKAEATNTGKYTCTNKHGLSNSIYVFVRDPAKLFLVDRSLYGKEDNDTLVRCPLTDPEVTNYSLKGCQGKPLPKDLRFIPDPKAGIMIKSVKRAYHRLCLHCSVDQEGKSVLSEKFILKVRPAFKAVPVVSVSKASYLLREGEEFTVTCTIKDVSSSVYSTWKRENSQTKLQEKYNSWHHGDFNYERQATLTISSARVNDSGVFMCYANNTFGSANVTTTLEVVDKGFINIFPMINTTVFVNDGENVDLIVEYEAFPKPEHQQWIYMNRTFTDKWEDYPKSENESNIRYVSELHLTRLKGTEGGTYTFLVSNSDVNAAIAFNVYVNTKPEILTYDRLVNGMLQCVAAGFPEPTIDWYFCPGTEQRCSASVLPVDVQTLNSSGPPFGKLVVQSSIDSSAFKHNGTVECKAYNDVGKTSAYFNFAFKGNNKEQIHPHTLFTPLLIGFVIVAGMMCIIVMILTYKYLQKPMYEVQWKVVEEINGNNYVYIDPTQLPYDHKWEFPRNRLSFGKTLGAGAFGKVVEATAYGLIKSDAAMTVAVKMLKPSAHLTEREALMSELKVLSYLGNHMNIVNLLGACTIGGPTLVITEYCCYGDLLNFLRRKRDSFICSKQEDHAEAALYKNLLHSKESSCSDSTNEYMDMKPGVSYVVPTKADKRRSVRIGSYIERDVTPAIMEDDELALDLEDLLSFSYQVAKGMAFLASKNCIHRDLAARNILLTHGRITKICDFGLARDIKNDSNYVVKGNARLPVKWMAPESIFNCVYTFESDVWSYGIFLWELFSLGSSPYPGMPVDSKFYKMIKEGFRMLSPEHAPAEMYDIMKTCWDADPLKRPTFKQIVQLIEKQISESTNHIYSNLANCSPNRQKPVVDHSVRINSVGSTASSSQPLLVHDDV

[15] = target: Receptor-type tyrosine-protein kinase FLT3 (Homo sapiens) (UniProt P36888); test: Inhibition of FLT3 in human MV4-11 cells assessed as suppression of autophosphorylation at tyr589/591 residue at 10 uM incubated for 2 hrs by Western blot analysis; type: cell-based; design: scale not given: the % may be the effect or the level left
MOLM-13 [16] = test: Antiproliferative activity against human sunitinib-resistant MOLM-13 cells at 111 nM incubated for 72 hrs by CCK8 assay relative to control; type: functional
HL-60 = test: Antiproliferative activity against human HL-60 cells measured after 72 hrs by CCK8 assay; type: functional, cell-based; details: HL-60, 72 h
MV4-11 [17] = test: Induction of cell cycle arrest in human MV4-11 cells assessed as accumulation at G2/M phase at 100 nM incubated for 24 hrs by flow cytometry (reference value: 7.29%); type: functional
MOLM-13 [18] = test: Antiproliferative activity against human sunitinib-resistant MOLM-13 cells at 1000 nM incubated for 72 hrs by CCK8 assay relative to control; type: functional
[19] = target: Receptor-type tyrosine-protein kinase FLT3 (Homo sapiens) (UniProt P36888); test: Inhibition of FLT3 in human MOLM-13 cells assessed as reduction in autophosphorylation at tyr589/591 residue incubated for 2 hrs by Western blot analysis; type: cell-based
Homo sapiens = organism: Homo sapiens; test: Binding affinity to FLT3 ITD F691L mutant (unknown origin) at 1000 nM relative to control
[20] = target: Receptor-type tyrosine-protein kinase FLT3 (Homo sapiens) (UniProt P36888); test: Inhibition of FLT3 in human MV4-11 cells assessed as reduction in autophosphorylation at tyr589/591 residue incubated for 2 hrs by Western blot analysis; type: cell-based
[21] = AUC (0 to last) in Sprague-Dawley rat at 1 mg/kg, iv; type: ADME, organism-based; design: route intravenous, time 0 - last, dose 1 mg/kg; details: in vivo
[22] = Toxicity in mouse xenografted with human MV4-11 cells assessed as effect on spleen at 2.5 to 10 mg/kg, po administered for 16 days by hematoxylin and eosin staining assay; type: organism-based; details: in vivo, 384 h, dose 2.5-10 mg/kg, time 16 day
HeLa = test: Antiproliferative activity against human HeLa cells measured after 72 hrs by CCK8 assay; type: functional, cell-based
MOLM-13 [23] = test: Induction of apoptosis in human MOLM-13 cells incubated for 24 hrs by flow cytometry; type: functional, cell-based
[24] = Cmax in Sprague-Dawley rat at 10 mg/kg, po; type: ADME, organism-based; design: route oral, dose 10 mg/kg; details: in vivo
MV4-11 [25] = test: Induction of cell cycle arrest in human MV4-11 cells assessed as accumulation at sub-G1 phase at 1 nM incubated for 24 hrs by flow cytometry (reference value: […]%); type: functional
MV4-11 [26] = test: Induction of apoptosis in human MV4-11 cells assessed as necrotic cells at 1 nM incubated for 24 hrs by flow cytometry (reference value: 0.25%); type: functional
KG-1 = test: Antiproliferative activity against human KG1 cells measured after 72 hrs by CCK8 assay; type: functional, cell-based; details: KG-1, 72 h
MOLM-13 [27] = test: Antiproliferative activity against human sunitinib-resistant MOLM-13 cells at 333 nM incubated for 72 hrs by CCK8 assay relative to control; type: functional
MDA-MB-231 = test: Antiproliferative activity against human MDA-MB-231 cells measured after 72 hrs by CCK8 assay; type: functional, cell-based; details: MDA-MB-231, 72 h
MOLM-13 [28] = test: Induction of cell cycle arrest in human MOLM-13 cells assessed as accumulation at G2/M phase at 1 nM incubated for 24 hrs by flow cytometry (reference value: […]); type: functional
MV4-11 [29] = test: Induction of cell cycle arrest in human MV4-11 cells assessed as accumulation at sub-G1 phase at 10 nM incubated for 24 hrs by flow cytometry (reference value: […]%); type: functional
[30] = Toxicity in mouse xenografted with human MV4-11 cells assessed as effect on lung at 2.5 to 10 mg/kg, po administered for 16 days by hematoxylin and eosin staining assay; type: organism-based; details: in vivo, 384 h, dose 2.5-10 mg/kg, time 16 day
MOLM-13 [31] = test: Antiproliferative activity against human MOLM-13 cells incubated for 72 hrs by Cell Counting Kit-8 assay; type: functional, cell-based; details: MOLM-13, 72 h
MOLM-13 [32] = test: Antiproliferative activity against human quizartinib-resistant MOLM-13 cells at 4 nM incubated for 72 hrs by CCK8 assay relative to control; type: functional
MV4-11 [33] = test: Antitumor activity against human MV4-11 cells xenografted in mouse assessed as tumor growth inhibition at 5 mg/kg, po administered for 20 days measured once every 2 days relative to control; type: functional; details: MV4-11, po, 480 h, time 20 day, read-out: TGI

**Q.** Which results are given for Cc1c(NC(=O)CCN2CCCC2)c[nH]c1/C=C1\C(=O)Nc2ccc(F)cc21?
**A.** Activity (MOLM-13 [1]): 0.9%; viability at 0.1 µM (MV4-11 [2]): 71.7%; Activity [3]: Non-Toxic; Activity (MOLM-13 [4]): 59.1%; Activity (Mus musculus): inactive; Activity [5]: Active; Activity (MOLM-13 [6]): 4.16%; Activity (MOLM-13 [7]): 0.22%; Activity (MOLM-13 [8]): 42.35%; Activity (MOLM-13 [9]): 1.5%; IC50 [10]: 41.8 nM; Activity (MV4-11 [11]): Dose-Dependent Effect; Activity (MOLM-13 [12]): 3.69%; Activity (MV4-11 [13]): 69.79%; IC50 [14]: > 1000 nM; Activity [15]: 100%; Activity (MOLM-13 [16]): 4.9%; IC50 (HL-60): 4720 nM; Activity (MV4-11 [17]): 2.51%; Activity (MOLM-13 [18]): 67.8%; Activity [19]: Dose-Dependent Effect; Activity (Homo sapiens): Active; Activity [20]: Dose-Dependent Effect; AUC(0-t) [21]: 2880 ng·h/mL; Activity [22]: Non-Toxic; IC50 (HeLa): 1960 nM; Activity (MOLM-13 [23]): Dose-Dependent Effect; Cmax [24]: 1880 ng/mL; Activity (MV4-11 [25]): 13.92%; Activity (MV4-11 [26]): 1.38%; IC50 (KG-1): 1100 nM; Activity (MOLM-13 [27]): 18.6%; IC50 (MDA-MB-231): 1830 nM; Activity (MOLM-13 [28]): 7.13%; Activity (MV4-11 [29]): 28.68%; Activity [30]: Non-Toxic; IC50 (MOLM-13 [31]): 35.5 nM; Activity (MOLM-13 [32]): 3.3%

**Q.** With CCN(CC)CCNC(=O)c1c(C)[nH]c(/C=C2\C(=O)Nc3ccc(F)cc32)c1C [SUNITINIB] as the molecule, how does the viability at 0.1 µM (MV4-11 [2]) read?
**A.** 80.1%

**Q.** What about the Activity (MOLM-13 [4]) of the same molecule?
**A.** 63.75%

**Q.** And the Activity (MOLM-13 [7])?
**A.** 0.24%

**Q.** What about the Activity (MOLM-13 [8]) of the same molecule?
**A.** 49.02%

**Q.** And the Activity (MOLM-13 [9])?
**A.** 0.5%

**Q.** And the Activity (MV4-11 [13])?
**A.** 66.78%

**Q.** And the Activity (MOLM-13 [16])?
**A.** 1.3%

**Q.** What about the Activity (MV4-11 [17]) of the same molecule?
**A.** 2.68%

**Q.** What about the Activity (MOLM-13 [18]) of the same molecule?
**A.** 25.9%

**Q.** And the inhibition in vivo at 5 mg/kg (MV4-11 [33])?
**A.** 29.9%

**Q.** What about the Activity (MV4-11 [26]) of the same molecule?
**A.** 0.32%

**Q.** And the Activity (MOLM-13 [27])?
**A.** 6.3%

**Q.** And the IC50 (MOLM-13 [31])?
**A.** 69.6 nM

**Q.** And the Activity (MOLM-13 [32])?
**A.** -0.6%
